Experimental data published in patent US5432042A, “Method for obtaining a printing plate according to the silver salt diffusion transfer process” (Agfa-Gevaert, N.V., priority 1993, dated 1995).

Experiment: pKa of the mercapto group by titration with hydrochloric acid
Assay type: physicochemical
Settings: 0.002 mole/liter in water at pH 11, titrated with hydrochloric acid (0.1 mole/liter)
Method: The pKa of the hydrophobizing compounds in connection with the present invention were determined according to the method described in "Ionization Constants of Acids and Bases--A Laboratory Manual" written by Adrien Albert and E. P. Serjeant and Edited by John Wiley & Sons (New York) page 110-112 (1962).
In these particular cases, the hydrophobizing compounds were dissolved in water at pH 11. The concentration of the hydrophobizing compounds was 0.002 mole/liter and the mixture was then titrated with a solution of hydrochloric acid (0.1 mole/liter).
With `CCCCCCn1nnnc1S` [compound 3] the pKa was 3.4. In the case of `CCCCCCNC(=O)Cn1nnnc1S` [compound 1], the pKa is reported as 3.3. Work on `CCCCCCCc1nnc(S)o1` [2-mercapto-5-n.heptyl-oxa-3,4-diazole, reference compound] yielded a pKa of 4.8.
